Measured values as given in PMC5552854, “ER/K linked GPCR-G protein fusions systematically modulate second messenger response in cells” (Scientific Reports, 2017).

Tests used:
α2-AR-Gi fusion [1] = settings: 100 μM, 1 μM forskolin; α2-AR-Gi compared to α2-AR alone (–)
α2-AR-Gi fusion [2] = settings: 100 μM / 1 mM (Fig. 3 legend), live cells
Procedure: Change in FRET (ΔFRET) was calculated as FRETligand – FRETbuffer.

β2-AR-Gs sensor = test: [3H]-DHA saturation binding (KD); parameters: species or system human; settings: β2-AR-Gs sensor membranes
Procedure: (§1) Radio-ligand assays followed the previously published protocol. […]; PerkinElmer) for 90 min at room temperature in Tris-Buffered-Saline (TBS) pH 7.4. Samples were transferred to GF/C membranes pre-treated with 0.3% PEI solution in TBS, washed extensively with cold TBS, and dried over night at room temperature. […] Each experiment was done at least twice with different membrane preparations, with three separate samples prepared per condition, per experiment.

β2-AR control (–) sensor = test: [3H]-DHA saturation binding (KD); parameters: species or system human; settings: control sensor membranes
Procedure: as §1

| SMILES | loss in cAMP signaling (inhibition of forskolin induced cAMP) (α2-AR-Gi fusion [1]) | ΔFRET (α2-AR-Gi fusion [2]) | Kd (β2-AR-Gs sensor) [nM] | Kd (β2-AR control (–) sensor) [nM] |
| --- | --- | --- | --- | --- |
| CNC[C@H](O)c1ccc(O)c(O)c1 [epinephrine] | greater loss in cAMP signaling | 0.01 ± 0.002 | – | – |
| CCCc1ccccc1OCC(O)CNC(C)C (stereo not shown) [[^3H]-DHA, [^3H]-dihydroalprenolol] | – | – | ~0.2 | ~0.2 |
